From US8178497B2, “Method of treating HIV in drug resistant non plasma viral reservoirs with monomeric DAPTA” (Rapid Pharmaceuticals AG, priority 2007, dated 2012)
Like-named read-outs stand apart in the source and are kept apart here. One block for each compound: values may come before it.

Tests used:
CCR5 [1] = biological target: T1, CCR5 (Homo sapiens, UniProt P51681); assay: CCR5 expression on SK-N-SH neuronal cells, 2D7 mAb staining; format: cell-based; set-up: CCR5 expression in these differentiated cells is limited and further reduced in the presence of DAPTA; endogenous in cells; host or cells: SK-N-SH (differentiated with retinoic acid)
From the text: To assess CCR5 expression on surface of neuronal cell lines, SK-N-SH were stained with 2D7 mAb in presence or in absence of DAPTA (at different doses) and TAK-779. SK-N-SH line has the potential of differentiating to neural cells in the presence of retinoic acid, and it has been used as a model of primary neurons.

[2] = system: SK-N-SH cells exposed to R5 HIV-1 strain BaL; assay: apoptosis of differentiated SK-N-SH cells exposed to HIV-1 BaL, FACS; format: cell-based; settings: for apoptosis, share of SK-N-SH cells: day 5, 60% with HIV-1BaL alone
From the text: Finally, we exposed differentiated SK-N-SH cells to the R5 HIV-1 strain BaL, in the presence or absence of monomeric DAPTA, and assessed neuronal apoptosis. […] To compare the anti-apoptotic effect of monomeric DAPTA with other CCR5-binding molecules, we also tested the CCR5 antagonist TAK-779.

HIV-1 = settings: 18 hours postinfection, vs not-treated cells
Description: Eighteen hours postinfection, genomic DNA was extracted and two-fold dilution of cell equivalents (range 1×10^6-1.25×10^5) were amplified in an inverse/nested PCR specific for a conserved gag region of the viral genome. Semi-quantitative analyses of HIV-1 DNA in M/M were performed by comparison of DNA amplification products from infected cells, standardized by PCR for β-actin, to standards of amplified U1 DNA copies and cell numbers. The UN-SCAN IT-gel software (Silk Scientific Inc.) was used to determine band densities (FIG. 3A).

HIV [3] = settings: doses as high as 10^−7 M; cited from earlier work
CCR5 [4] = biological target: T1, CCR5; assay: competition between CCR5-FITC antibody and DAPTA in M/M, flow cytometry; format: cell-based; set-up: endogenous in cells; host or cells: human primary monocyte/macrophages (M/M)
From the text: To confirm that monomeric DAPTA binding is specific for CCR5, a competition experiment between CCR5-FITC antibody and DAPTA in M/M was done. […] Treatment with monomeric DAPTA reduced CCR % expression to 9% with 10^−12 M DAPTA, compared with 35% of mock-treated M/M (FIG. 2) (p≦0.001).

[5] = aggregation of peptide in solution; format: physicochemical
From the text: These marginal clinical benefits were inexplicable in the context of the many successful in vitro studies and an explanation was sought. […] Therefore reduction to practice required that the non-obvious formation of multimers must be remedied for considerations of both patient safety and drug efficacy.

HIV [6] = settings: frozen stored plasma samples; p=.037; cited from earlier work
HIV [7] = settings: main endpoint of the small trial; cited from earlier work
[8] = system: CXCR4-using (X4) strains, HIV-1 IIIB; assay: p24 antigen production in HIV-infected M/M (CXCR4-using strain); format: cell-based; settings: M/M infected by HIV-1 IIIB; data not shown
Description: (§1) Viral replication and production in HIV-infected M/M treated with DAPTA was assessed 14 and 21 days after infection for p24 antigen production.

[9] = system: CCR5-using HIV-1 strain, 81A; assay: p24 antigen production in HIV-infected M/M (CCR5-using strain); format: cell-based
Description: as §1

T1 sequence (P51681 whole entry): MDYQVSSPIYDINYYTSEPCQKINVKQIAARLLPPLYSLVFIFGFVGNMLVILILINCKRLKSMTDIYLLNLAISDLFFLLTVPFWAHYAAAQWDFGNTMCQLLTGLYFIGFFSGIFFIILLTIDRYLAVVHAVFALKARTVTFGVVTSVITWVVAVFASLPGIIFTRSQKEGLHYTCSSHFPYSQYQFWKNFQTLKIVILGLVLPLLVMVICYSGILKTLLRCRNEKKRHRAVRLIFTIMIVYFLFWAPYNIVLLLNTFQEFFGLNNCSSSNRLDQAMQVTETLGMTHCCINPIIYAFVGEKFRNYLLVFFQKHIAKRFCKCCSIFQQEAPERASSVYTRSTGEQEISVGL

inhibition of CCR5 expression (CCR5 [1]; 1.8×10^−6 M): about 61%
Compound: Cc1ccc(-c2ccc3c(c2)C=C(C(=O)Nc2ccc(C[N+](C)(C)C4CCOCC4)cc2)CCC3)cc1.[Cl-] [TAK-779, reference compound]
inhibition of apoptosis ([2]; 1.8×10^−6 M, vs cells not treated): 30%

Compound: Dala1-peptide T-amide [DAPTA]
decline of HIV-1 DNA per 2.5×10^5 cells (HIV-1; 10^−7 M): 64%
decline of HIV-1 DNA per 2.5×10^5 cells (HIV-1; 10^−9 M): 70%
antiviral effects (Sodroski) (HIV [3]): failed to find antiviral effects
inhibition of CCR5 expression (CCR5 [1]; 10^−12M, vs unexposed SK-N-SH): 72%
inhibition of CCR5 expression (CCR5 [1]; 10^−13M, vs unexposed SK-N-SH): 68.5%
inhibition of CCR5-binding, maximum (CCR5 [4]; 10^−12 M): 73%
CCR5 expression (CCR5+ M/M) (CCR5 [4]; 10^−12 M, mock-treated 35%): 9%
CCR5+ positive M/M (CCR5 [4]; DAPTA treated M/M, mock-treated 35%): 20%
inhibition of CCR5-binding (CCR5 [4]; overall, several DAPTA doses): about 43%
aggregation in solution [5]: quickly formed aggreagates in solution
reduction in viral load (HIV [6]): 0.54 log 10
apoptosis, share of SK-N-SH cells ([2]; 10^−3M): 28%
apoptosis, share of SK-N-SH cells ([2]; 10^−12M): 26%
plasma viral load (HIV [7]): failing to reduce plasma viral load
effect on HIV-1 p24 antigen production [8]: no effect
reduction of p24 gag antigen production of control M/M cultures ([9]; HIV-1 81A, doses as low as 10^−14 M, 14 and 21 days after infection): ~80%
effective dose lower than described in earlier reports (enhanced in vitro potency) ([9]; monomeric formulation vs earlier reports): 100-100,000 fold
